Experimental data taken from patent US9206188B2, “Substituted pyrrolo[2,3-b]pyridines as ITK and JAK inhibitors” (Arrien Pharmaceuticals LLC, priority 2013, dated 2015).
Read-outs that look alike come from different tables or passages of the source.

Tests used:
JAK3 = JAK3 (Homo sapiens (Human), UniProt P52333); assay: JAK3 kinase assay (radiometric filter binding, 10 μM ATP); assay type: biochemical
Description: (§1) All additions were done on ice, followed by the addition of ATP mix. Wells were uniformly mixed using an Eppendorff plate shaker and incubated at 30° C. for 20 min, and stopped by the addition of 5 μL of 3% phosphoric acid. Volume was increased to 100 μL by adding 0.8% phosphoric acid which was then transferred to PC filter mats (Millipore), pre-equilibrated with 70% ethanol and water. Plates were washed thrice with 100 μL 0.8% phosphoric acid and dried for an hour at 60° C. 100 μL scintillation fluid was added into each well and reading taken in Perkin Elmer TOPCOUNT beta counter.
(§2) The reactions were carried out at 10 μM ATP for ITK, JAK3 and other TEC and Janus family of kinase.

ITK = ITK (Homo sapiens (Human), UniProt Q08881); assay: ITK kinase assay (radiometric filter binding, 10 μM ATP); assay type: biochemical
Description: as §1, §2

[1] = 10-dose IC50 mode, 10 μM ATP, read-out: JAK3 kinase inhibition
[2] = 10-dose IC50 mode, 10 μM ATP, read-out: ITK kinase inhibition

ITK, sequence (Q08881 whole entry): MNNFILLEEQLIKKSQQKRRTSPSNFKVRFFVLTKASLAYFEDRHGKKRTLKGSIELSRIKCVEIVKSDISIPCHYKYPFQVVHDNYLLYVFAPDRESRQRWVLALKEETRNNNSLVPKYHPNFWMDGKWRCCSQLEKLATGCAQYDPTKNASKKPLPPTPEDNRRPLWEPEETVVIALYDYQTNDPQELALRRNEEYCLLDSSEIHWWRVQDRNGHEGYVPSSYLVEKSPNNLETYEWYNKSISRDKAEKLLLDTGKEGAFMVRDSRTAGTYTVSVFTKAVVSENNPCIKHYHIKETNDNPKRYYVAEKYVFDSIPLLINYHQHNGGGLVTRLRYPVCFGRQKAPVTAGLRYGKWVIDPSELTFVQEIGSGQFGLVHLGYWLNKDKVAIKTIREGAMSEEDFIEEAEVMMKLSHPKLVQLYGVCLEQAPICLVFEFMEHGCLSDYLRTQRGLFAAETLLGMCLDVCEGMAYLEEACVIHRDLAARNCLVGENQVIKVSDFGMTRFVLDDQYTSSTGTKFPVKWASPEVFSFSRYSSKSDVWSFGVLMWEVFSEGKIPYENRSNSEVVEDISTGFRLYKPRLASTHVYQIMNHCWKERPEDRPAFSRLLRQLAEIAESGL
JAK3, sequence (P52333 whole entry): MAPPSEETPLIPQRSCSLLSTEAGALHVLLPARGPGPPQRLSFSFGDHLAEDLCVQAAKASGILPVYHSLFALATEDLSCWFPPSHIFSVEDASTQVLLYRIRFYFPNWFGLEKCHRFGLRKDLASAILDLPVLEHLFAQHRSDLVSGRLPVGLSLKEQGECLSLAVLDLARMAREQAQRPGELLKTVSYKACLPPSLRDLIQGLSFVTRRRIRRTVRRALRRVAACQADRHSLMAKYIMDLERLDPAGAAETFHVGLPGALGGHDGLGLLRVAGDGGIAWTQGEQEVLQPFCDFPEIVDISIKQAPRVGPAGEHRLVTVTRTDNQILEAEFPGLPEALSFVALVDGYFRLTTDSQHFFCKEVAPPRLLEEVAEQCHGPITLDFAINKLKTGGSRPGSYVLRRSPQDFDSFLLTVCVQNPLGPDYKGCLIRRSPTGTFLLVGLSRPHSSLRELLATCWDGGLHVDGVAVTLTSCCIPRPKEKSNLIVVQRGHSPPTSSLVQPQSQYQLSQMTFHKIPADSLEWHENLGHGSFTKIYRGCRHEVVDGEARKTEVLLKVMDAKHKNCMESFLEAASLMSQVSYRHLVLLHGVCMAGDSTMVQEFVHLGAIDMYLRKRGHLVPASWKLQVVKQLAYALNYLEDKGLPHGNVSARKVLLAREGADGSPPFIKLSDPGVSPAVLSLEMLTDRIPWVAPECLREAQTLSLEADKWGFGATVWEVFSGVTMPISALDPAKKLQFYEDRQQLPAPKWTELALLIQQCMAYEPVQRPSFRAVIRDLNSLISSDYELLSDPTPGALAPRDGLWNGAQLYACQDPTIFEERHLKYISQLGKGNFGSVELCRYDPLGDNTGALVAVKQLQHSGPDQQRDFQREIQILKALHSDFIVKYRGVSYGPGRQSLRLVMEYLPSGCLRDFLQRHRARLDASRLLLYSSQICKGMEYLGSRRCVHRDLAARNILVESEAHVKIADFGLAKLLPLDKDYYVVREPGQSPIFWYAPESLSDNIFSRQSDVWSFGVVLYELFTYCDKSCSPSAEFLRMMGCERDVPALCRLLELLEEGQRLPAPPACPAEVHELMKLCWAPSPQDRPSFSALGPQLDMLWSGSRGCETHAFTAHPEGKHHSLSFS

| SMILES | IC50 (JAK3; [1]) [nM] | IC50 (ITK; [2]) [nM] | IC50 (JAK3; read-out: biochemical IC50 against JAK3) [nM] | IC50 (ITK; read-out: biochemical IC50 against ITK) [nM] |
| --- | --- | --- | --- | --- |
| C=CC(=O)Nc1cccc(-c2cnc3[nH]cc(-c4cccc(C(N)=O)c4)c3c2)c1 [Example 76, 3-(5-(3-acrylamidophenyl)-1H-pyrrolo[2,3-b]pyridin-3-yl)benzamide] | > 100 | > 100 | – | – |
| C=CC(=O)N1CCCC1C(=O)Nc1cccc(-c2cnc3[nH]cc(C)c3c2)c1 (centres unmarked) [Example 72, 1-acryloyl-N-(3-(3-methyl-1H-pyrrolo[2,3-b]pyridin-5-yl)phenyl)pyrrolidine-2-carboxamide] | > 100 | > 100 | – | – |
| CC/C=C/C(=O)Nc1cc(-c2cnc3[nH]nc(C)c3c2)ccc1Cl [Example 52, (E)-N-(2-chloro-5-(3-methyl-1H-pyrazolo[3,4-b]pyridin-5-yl)phenyl)pent-2-enamide] | > 1000 | > 1000 | – | – |
| Cc1n[nH]c2ncc(-c3cccc(NC(=O)/C=C/N(C)C)c3)cc12 [Example 48, (E)-3-(dimethylamino)-N-(3-(3-methyl-1H-pyrazolo[3,4-b]pyridin-5-yl)phenyl)acrylamide] | > 100 | > 100 | – | – |
| C=CC(=O)Nc1cccc(-c2cnc3[nH]cc(-c4cccc(S(=O)(=O)CC)c4)c3c2)c1 [Example 36, N-(3-(3-(3-(ethylsulfonyl)phenyl)-1H-pyrrolo[2,3-b]pyridin-5-yl)phenyl)acrylamide] | > 100 | > 100 | – | – |
| COc1cc(F)c(C)cc1-c1c[nH]c2ncc(-c3cccc(NC(=O)/C=C/CN(C)C)c3)cc12 [Example 138, (E)-4-(dimethylamino)-N-(3-(3-(4-fluoro-2-methoxy-5-methylphenyl)-1H-pyrrolo[2,3-b]pyridin-5-yl)phenyl)but-2-enamide] | > 100 | > 100 | – | – |
| C=CC(=O)Nc1cccc(-c2cnc3[nH]cc(-c4cccc(S(=O)(=O)N(C)C)c4)c3c2)c1 [Example 34, N-(3-(3-(3-(N,N-dimethylsulfamoyl)phenyl)-1H-pyrrolo[2,3-b]pyridin-5-yl)phenyl)acrylamide] | > 100 | > 100 | – | – |
| C=CC(=O)Nc1cc(-c2cnc3[nH]cc(-c4cc(F)cc(F)c4OC)c3c2)ccc1Cl [Example 41, N-(2-chloro-5-(3-(3,5-difluoro-2-methoxyphenyl)-1H-pyrrolo[2,3-b]pyridin-5-yl)phenyl)acrylamide] | > 100 | > 100 | – | – |
| C=CC(=O)Nc1ccc(-c2cnc3[nH]ccc3c2)cc1F [Example 61, N-(2-fluoro-4-(1H-pyrrolo[2,3-b]pyridin-5-yl)phenyl)acrylamide] | > 100 | > 1000 | – | – |
| C#CC(=O)Nc1cccc(-c2cnc3[nH]cc(-c4cc(F)cc(F)c4OC)c3c2)c1 [Example 98, N-(3-(3-(3,5-difluoro-2-methoxyphenyl)-1H-pyrrolo[2,3-b]pyridin-5-yl)phenyl)propiolamide] | > 100 | > 100 | – | – |
| CC#CC(=O)Nc1cc(-c2cnc3[nH]cc(C)c3c2)ccc1F [Example 93, N-(2-fluoro-5-(3-methyl-1H-pyrrolo[2,3-b]pyridin-5-yl)phenyl)but-2-ynamide] | > 100 | > 100 | – | – |
| O=C(CF)Nc1cccc(-c2cnc3[nH]cc(Cl)c3c2)c1 [Example 22, N-(3-(3-chloro-1H-pyrrolo[2,3-b]pyridin-5-yl)phenyl)-2-fluoroacetamide] | < 100 | > 1000 | – | – |
| C=CC(=O)Nc1cccc(-c2cnc3[nH]cc(-c4cccc(F)c4OC)c3c2)c1 [Example 26, N-(3-(3-(3-fluoro-2-methoxyphenyl)-1H-pyrrolo[2,3-b]pyridin-5-yl)phenyl)acrylamide] | < 100 | < 100 | – | – |
| C=CC(=O)Nc1cccc(-c2cnc3[nH]cc(-c4cccc(S(=O)(=O)N(C)C(C)(C)C)c4)c3c2)c1 [Example 27, N-(3-(3-(3-(N-(tert-butyl)-N-methylsulfamoyl)phenyl)-1H-pyrrolo[2,3-b]pyridin-5-yl)phenyl)acrylamide] | < 100 | < 100 | – | – |
| CCC#CC(=O)Nc1cccc(-c2cnc3[nH]cc(Cl)c3c2)n1 [Example 80, N-(6-(3-chloro-1H-pyrrolo[2,3-b]pyridin-5-yl)pyridin-2-yl)pent-2-ynamide] | < 100 | < 100 | – | – |
| COc1cc(F)c(C)cc1-c1c[nH]c2ncc(-c3cc(F)cc(NC(=O)/C=C/CN(C)C)c3C)cc12 [Example 172, (E)-4-(dimethylamino)-N-(5-fluoro-3-(3-(4-fluoro-2-methoxy-5-methylphenyl)-1H-pyrrolo[2,3-b]pyridin-5-yl)-2-methylphenyl)but-2-enamide] | < 100 | < 100 | – | – |
| C#CC(=O)Nc1cccc(-c2cnc3[nH]cc(Cl)c3c2)c1 [Example 20, N-(3-(3-chloro-1H-pyrrolo[2,3-b]pyridin-5-yl)phenyl)propiolamide] | < 100 | < 100 | – | – |
| C=CC(=O)Nc1cc(-c2cnc3[nH]nc(C)c3c2)ccc1Cl [Example 50, N-(2-chloro-5-(3-methyl-1H-pyrazolo[3,4-b]pyridin-5-yl)phenyl)acrylamide] | > 100 | > 100 | – | – |
| COc1c(F)cc(F)cc1-c1c[nH]c2ncc(-c3cc(NC(=O)/C=C/CN(C)C)ccc3F)cc12 [Example 133, (E)-N-(3-(3-(3,5-difluoro-2-methoxyphenyl)-1H-pyrrolo[2,3-b]pyridin-5-yl)-4-fluorophenyl)-4-(dimethylamino)but-2-enamide] | > 100 | > 100 | – | – |
| Cc1c[nH]c2ncc(-c3cccc(NC(=O)CF)c3)cc12 [Example 25, 2-fluoro-N-(3-(3-methyl-1H-pyrrolo[2,3-b]pyridin-5-yl)phenyl)acetamide] | < 100 | > 1000 | – | – |

The remaining lines, values ahead:

| IC50 (JAK3; [1]) [nM] | IC50 (ITK; [2]) [nM] | IC50 (JAK3; read-out: biochemical IC50 against JAK3) [nM] | IC50 (ITK; read-out: biochemical IC50 against ITK) [nM] | SMILES |
| --- | --- | --- | --- | --- |
| < 100 | < 100 | – | – | COc1c(F)cc(F)cc1-c1c[nH]c2ncc(-c3cccc(NC(=O)/C(C)=C/C(C)(C)C)c3)cc12 [Example 158, (E)-N-(3-(3-(3,5-difluoro-2-methoxyphenyl)-1H-pyrrolo[2,3-b]pyridin-5-yl)phenyl)-2,4,4-trimethylpent-2-enamide] |
| < 100 | < 100 | – | – | C=CC(=O)Nc1cc(-c2cnc3[nH]ccc3c2)ccc1F [Example 59, N-(2-fluoro-5-(1H-pyrrolo[2,3-b]pyridin-5-yl)phenyl)acrylamide] |
| < 100 | < 100 | – | – | C#CC(=O)Nc1cccc(-c2cnc3[nH]ccc3c2)n1 [Example 77, N-(6-(1H-pyrrolo[2,3-b]pyridin-5-yl)pyridin-2-yl)propiolamide] |
| < 100 | < 100 | – | – | C#CC(=O)Nc1cc(-c2cnc3[nH]cc(C)c3c2)ccc1F [Example 92, N-(2-fluoro-5-(3-methyl-1H-pyrrolo[2,3-b]pyridin-5-yl)phenyl)propiolamide] |
| < 100 | > 100 | – | – | CC#CC(=O)Nc1cc(-c2cnc3[nH]ccc3c2)ccc1F [Example 87, N-(2-fluoro-5-(1H-pyrrolo[2,3-b]pyridin-5-yl)phenyl)but-2-ynamide] |
| < 100 | < 100 | – | – | CC#CC(=O)Nc1cccc(-c2cnc3[nH]cc(Cl)c3c2)n1 [Example 82, N-(6-(3-chloro-1H-pyrrolo[2,3-b]pyridin-5-yl)pyridin-2-yl)but-2-ynamide] |
| < 100 | < 100 | – | – | C=CC(=O)Nc1cccc(-c2cnc3[nH]cc(-c4cccc(C(=O)OCC)c4)c3c2)c1 [Example 29, ethyl 3-(5-(3-acrylamidophenyl)-1H-pyrrolo[2,3-b]pyridin-3-yl)benzoate] |
| < 100 | > 100 | – | – | CCC#CC(=O)Nc1cc(-c2cnc3[nH]cc(Cl)c3c2)ccc1F [Example 86, N-(5-(3-chloro-1H-pyrrolo[2,3-b]pyridin-5-yl)-2-fluorophenyl)pent-2-ynamide] |
| < 100 | > 1000 | 100 to 1000 | 100 to 1000 | C#CC1(C(=O)Nc2cccc(-c3cnc4[nH]cc(Cl)c4c3)c2)CC1 [Example 16, N-(3-(3-chloro-1H-pyrrolo[2,3-b]pyridin-5-yl)phenyl)-1-ethynylcyclopropanecarboxamide] |
| < 100 | > 1000 | – | – | C#CC(=O)Nc1cc(-c2cnc3[nH]cc(Cl)c3c2)ccc1F [Example 84, N-(5-(3-chloro-1H-pyrrolo[2,3-b]pyridin-5-yl)-2-fluorophenyl)propiolamide] |
| < 100 | > 100 | – | – | CCC#CC(=O)Nc1cccc(-c2cnc3[nH]cc(C)c3c2)c1 [Example 24, N-(3-(3-methyl-1H-pyrrolo[2,3-b]pyridin-5-yl)phenyl)pent-2-ynamide] |
| < 100 | < 100 | – | – | CCC#CC(=O)Nc1cccc(-c2cnc3[nH]ccc3c2)n1 [Example 78, N-(6-(1H-pyrrolo[2,3-b]pyridin-5-yl)pyridin-2-yl)pent-2-ynamide] |
| < 100 | < 100 | – | – | CCC#CC(=O)Nc1cccc(-c2cnc3[nH]cc(C)c3c2)n1 [Example 90, N-(6-(3-methyl-1H-pyrrolo[2,3-b]pyridin-5-yl)pyridin-2-yl)pent-2-ynamide] |
| < 100 | > 100 | – | – | C#CC(=O)Nc1cccc(-c2cnc3[nH]cc(C)c3c2)c1 [Example 70, N-(3-(3-methyl-1H-pyrrolo[2,3-b]pyridin-5-yl)phenyl)propiolamide] |
| < 100 | < 100 | – | – | C=CC(=O)Nc1cccc(-c2cnc3[nH]cc(-c4cccc(S(=O)(=O)N(C)C(C)(C)C)c4)c3n2)c1 [Example 33, N-(3-(7-(3-(N-(tert-butyl)-N-methylsulfamoyl)phenyl)-5H-pyrrolo[2,3-b]pyrazin-2-yl)phenyl)acrylamide] |
| < 100 | < 100 | – | – | CC#CC(=O)Nc1cccc(-c2cnc3[nH]ccc3c2)n1 [Example 81, N-(6-(1H-pyrrolo[2,3-b]pyridin-5-yl)pyridin-2-yl)but-2-ynamide] |
